Literature values, collected in patent publication US20140023718A1, “PROSTAGLANDIN-CONTAINING FAT EMULSION” (FUJIFILM Corporation, priority 2011, published 2014).

Conditions: 25° C. water

| Compound | pKa1 | pKa2 | pKa |
| --- | --- | --- | --- |
| O=C(O)CC(O)C(=O)O (centres unmarked) [malic acid] | 3.40 | 5.13 |  |
| CCCC(=O)O [butyric acid] |  |  | 4.63 |
| O=C(O)CCC(=O)O [succinic acid] | 4.00 | 5.24 |  |
